According to a melting point compilation (Tetko et al.; mined from patent text by program, amines drawn as free bases though some values may be those of a salt):

melting point [°C] | SMILES
175 to 176 | N#Cc1cccc(CSc2nnc(-c3ccc4nccn4c3)o2)c1
131 to 133 | Nc1cc(CCC(=O)CCc2ccc(O)c(N)c2)ccc1O
243 to 247 | O=C(O)CN1C(=O)C(=Cc2cc(Cl)ccc2O)SC1=S
120 | O=C1NCc2ccccc2N1C1CCN(Cc2ccccc2)CC1
154 to 156 | CCN1CC(=O)Nc2cc(NC3(C(N)=O)CC4CC3C=C4Cl)c(OC)cc2C1 (stereo not drawn)
278 to 279 | N#CC(=Cc1ccc(F)cc1[N+](=O)[O-])C(N)=O
151 to 153 | O=C1Cc2cc(C(=O)N3CCN(Cc4ccccc4)CC3)ccc2N1
120 to 122 | N#Cc1cccnc1N1CCN(CC(=O)Nc2ccc(F)c(C(F)(F)F)c2)CC1
59 to 61 | Cc1cc(OCCCCCl)cc(-c2ccc(F)cc2)n1
182 to 184 | NC1=NN(c2ccc(Cl)c(Cl)c2)CC1
226 to 228 | O=C(O)c1cn(C2CC2)c2nc(N3CCC(c4cccnc4)C3)c(F)cc2c1=O (stereo not drawn)
148 to 149 | CNC(=S)C1=C(O)C(C)(C)Oc2ccc([N+](=O)[O-])cc21
250 to 252 | N#Cc1ccc2[nH]c(C(=O)C34CC5CC(CC(C5)C3)C4)cc2c1
117 to 119 | Cc1nc(-c2cncc(F)c2)sc1N(C)C(=S)NC1CC1
98 to 100 | COc1cc(OC)nc(Cc2ccccc2NC(=O)OC(C)(C)C)n1
209 to 214 | CC1CC(C)CN(Cc2ccc(NC(=O)C#Cc3ccc(-c4ccc(Cl)cc4)cc3)cc2)C1 (stereo not drawn)
55 to 56 | Fc1cccc(SCc2nnc(-c3ccc4c(c3)CCO4)o2)c1
> 320 | O=c1[nH]c2cc(Cl)c(Cl)c(Cn3cncn3)c2[nH]c1=O
210 to 213 | CC12CCC(=O)C=C1CCC1C2=CCC2(C)C(=C=C(Cl)S(=O)c3ccccc3)CCC12 (stereo not drawn)
158 to 159 | COc1cc2c(cc1OC)CCCC(C(=O)O)=C2
203 to 205 | CCCC(=NO)c1ccc(C(=O)O)cn1

melting point [°C] | SMILES
146 to 147 | COC1(c2ccccc2)N=CC(=O)N(C)c2ccc(Cl)cc21 (stereo not drawn)
141 to 142 | O=C(O)CCCC1Cc2ccc(Cl)cc2C1=O (stereo not drawn)
104 | CCN1CCN(C(=O)c2cc(N)cc(C(F)(F)F)c2)CC1
194 to 196 | COc1ccc(C2=NNC(=O)Cc3cc4c(cc32)OCO4)cc1
173 to 176 | Cc1cc(C)n(-c2nc(Nc3ccc(Cl)cc3)cnc2CN)n1
163 to 165 | CCOC(CNC(=N)NN1CCc2cc(Cl)ccc21)OCC
251 to 253 | O=C(NCc1cccnc1)c1cc(N2CCN(Cc3ccc(F)cc3)C2=O)n[nH]1
122 to 123 | S=C(Cc1ccccc1)n1c(-c2cscn2)nc2ccccc21
206 to 208 | CCCC12CCC(=O)C=C1c1c(cc(CC(=O)O)c(Cl)c1Cl)C2 (stereo not drawn)
170 to 173 | COC(=O)c1c(O)c2cc(Cl)ccc2n1-c1ccccc1
57 to 58 | Clc1ccc(CCOc2ncnc3ccccc23)cc1
137 | CCOC(=O)c1ccc2nc(N[C@@H]3CCc4ccccc43)ccc2c1
97 | O=S(=O)(c1ccc(F)cc1)N1CCCC1c1cccs1 (racemic)
249 to 253 | CC(C)(C(=O)O)n1c(=O)[nH]c2ccc(F)cc2c1=O
174 to 175 | CCCCn1cc(C2CCN(Cc3ccc(OC)c(C(=O)O)c3)CC2)c2cccnc21
141 to 143 | Cc1cn(-c2ccc(N)cc2C(F)(F)F)cn1
195 to 197 | COC(=O)CCc1ccc(N2CCN(C34CCC(C#N)(CC3)CC4)C2=O)cc1
111 to 114 | Cc1cc(Oc2ccc(Cl)c(C(F)(F)F)c2)c(C)cc1N=CNC#N
204 | O=C(O)CS(=O)(=O)c1ccc2c(-c3ccccc3F)noc2c1Cl
184 to 186 | CC(C)c1cc(-c2ccc3c(c2)OCO3)nc2[nH]nc(N)c12

Second part, the molecule before the results:

SMILES | melting point [°C]
CCCCCCC(NS(=O)(=O)c1ccc(Cl)cc1)C(=O)Nc1ccc(CC(=O)O)cc1 (racemic) | 192 to 193
COC(=O)C=CC(C)Oc1ccc(OCc2ccccc2)cc1 (stereo not drawn) | 80 to 89
CCCCc1ncc(/C=C(\Cc2cccs2)C(N)=O)n1Cc1ccccc1[N+](=O)[O-] | 183 to 185
CN1C(=O)CC(Sc2cc(C(C)(C)C)c(O)c(C(C)(C)C)c2)C1=O (stereo not drawn) | 132
CCOC(=O)NCC1CO1 (stereo not drawn) | 75 to 78
COc1ccc(C(=O)c2c(CBr)n(C(C)=O)c(=O)n2C(C)=O)cc1 | 135 to 136
CCOc1cc(OCC)c2c(c1)S(=O)(=O)N(COc1cc(C(F)(F)F)nn1-c1ccccc1)C2=O | 159 to 160
CS(=O)(=O)n1c(C#N)nc2cc3c(cc21)OC(F)(F)C(F)(F)O3 | 180 to 183
CCCc1c(COc2ccc(-c3nnn(CCCN(C)C)n3)cc2)ccc(C(C)=O)c1O | 89 to 91
CCCCc1nn(-c2cc(NC(=O)CC)ccc2Br)c(=O)n1Cc1ccc(-c2ccccc2S(=O)(=O)NC(=O)OC(C)(C)C)cc1F | 123 to 126
O=C(c1ccccc1)c1ccc(NC(=O)C(O)(C(F)(F)F)C(F)(F)F)cc1 | 143 to 146
O=[N+]([O-])c1oc2ccc(CCO)cc2c1-c1ccccc1 | 169 to 173
CC1Cc2ccc(Br)cc2C(c2ccc(N)cc2)=NN1C(=O)C(F)(F)F (stereo not drawn) | 93 to 96
COCc1cnc2c(NC(=O)c3ccccc3C(F)(F)F)cccc2c1N1CCN(C)C1=O | 156
COc1ccc(C(=O)N2CCc3cc(OCc4ccccc4)c(OC)cc3C2=O)cc1OC | 200 to 201
O=c1c(O)c(-c2nnc(Cc3ccc(F)cc3)o2)oc2ccccc12 | 221
COc1cc(-c2cc(C(C)C)nn2C)cc2oc(=O)c(C)c(C)c12 | 125 to 126
CCS(=O)(=O)Nc1ccc(Cc2ccc(N)cc2)cc1 | 108 to 109
CC(CN1CC=C(c2ccc(Cl)cc2)CC1)C(O)c1ccc(Cl)cc1 (stereo not drawn) | 110 to 112

SMILES | melting point [°C]
CC(O)=C(C#N)C(=O)Oc1ccc(Cl)cc1 | 97 to 100
OCCN(c1ccccc1)c1ccccc1 | 109 to 110
O=C(Nc1cccc2c1C(=O)c1c-2n[nH]c1C1CCN(C(=O)Oc2ccccc2)CC1)NN1CCOCC1 | 250 to 252
Cc1ccc(CCCCc2ccc(C(=O)C[C@@H](C)CC(=O)O)s2)cc1 | 94
Cc1ccc(-c2c3c(cc4ccc(O)cc24)-c2ccc(O)cc2CO3)cc1 | 238 to 240
CNS(=O)(=O)c1cc(C)ccc1C=C1c2ccccc2CCc2ccccc21 | 175
COc1ccc(COC(=O)C2=C(C3CCCO3)OC[C@@H]3[C@H](NC(c4ccccc4)(c4ccccc4)c4ccccc4)C(=O)N23)cc1 (stereo partly drawn) | 129 to 131
N#Cc1ccnc(C2=NC(c3ccc(F)cc3)(c3ccc(F)cc3)CN2)c1 | 206 to 208
CCOC(=O)C=C(C)C=CC=C(C)C=Cc1c(C)cc(OC)c(OC)c1C | 203 to 204
CCCOc1nc(NC(C)C(O)c2ccccc2)c2cnn(-c3ccccc3)c2n1 (stereo not drawn) | 136 to 138
COc1cc(COc2ccc(S(=O)(=O)c3ccc(C)nc3Nc3c(C)cc(C)cc3C)cc2)cc(OC)c1 | 107 to 109
COC(=O)C(CNC(C)=O)C1CCC(c2ccccc2)CC1 (stereo not drawn) | 75 to 80
CCOC(=O)C1=C(C)NC(CSCCl)=C(C(=O)OCC)C1c1cccc([N+](=O)[O-])c1 (stereo not drawn) | 157 to 159
O=c1oc(-c2cccc(OC(F)(F)F)c2)cc(O)c1SCc1ccccc1 | 128 to 132
CC(=O)Nc1c(C#N)ccc(C#N)c1[N+](=O)[O-] | 232 to 233
NCCCOc1ccc(OCc2ccccc2)cc1 | 115
O=C(CC1Sc2ccccc2NC1=O)NCc1ccccc1 (stereo not drawn) | 238 to 240
CCOC(=O)CNS(=O)(=O)c1ccc(N2CCC(NC[C@H](O)c3ccc(O)c(NS(C)(=O)=O)c3)CC2)cc1 | 105 to 107
COc1ccc(C(=O)Nc2ccc(F)cc2)cc1NS(=O)(=O)c1ccc([N+](=O)[O-])cc1 | 208 to 211

SMILES | melting point [°C]
CN(C)CCc1cccc(OCCNc2nc(N)nn2C)c1 | 72
CCCCN1C(=O)C2C3CCC(O3)C2C1=O (stereo not drawn) | 82 to 83
COc1cccc(CC(=O)O)c1OCCCCc1cn(-c2ccc(C(F)(F)F)cn2)nc1C(C)C | 144 to 145
CCCC[C@@]1(O)CCC[C@@]2(C)CC[C@@H]3C[C@@]21OC3(C)C | 90 to 92
CC1(C)Oc2ccc(C#N)cc2[C@@H](NC(=S)Nc2ccccc2)[C@@H]1O (relative stereo) | 183 to 185
Cc1ccc(-c2cc[nH]c2)cc1 | 92 to 93
CCCCCCCCCC(C)NC(=O)C=C(C)c1cccc([N+](=O)[O-])c1 (stereo not drawn) | 72.5 to 74
CC(=O)N1c2c(ccn3c(C)c(C)nc23)[C@@H](O)[C@H](O)[C@H]1c1ccccc1 | 260 to 261
OC1CSC(Oc2cccnc2Br)C(O)C1O (stereo not drawn) | 151
CNC(=O)N1CCN(C(=O)Cc2ccc(Cl)c(Cl)c2)C(CN2CCC(O)C2)C1 (stereo not drawn) | 57
CN(C)C(=O)c1cc2n(n1)-c1ccc(Cl)cc1C(c1ccccc1)=NC2 | 176 to 178
COc1ccc(Nc2ccc3c(c2)OCC(=O)N3)cc1 | 174 to 175
CC(C)(C)OC(=O)NC(=N)NC(=O)c1cccc(P(c2ccccc2)c2ccccc2)c1 | 79 to 82
CN(SN1CCOCC1)C(=O)ON=C1SCC(=O)NC1(C)C | 180 to 182
CCOc1ccc(OCc2ccccc2OCc2nc(-c3ccccc3)oc2C)cc1CCC(=O)O | 146 to 147
COc1cc(Nc2c(C#N)cnc3c2C=C2N=C(NCCN4CCOCC4)N=C2C3)cc(OC)c1OC | 175 to 178
CC1(C)CCC(C)(C)c2cc(C(=O)c3ccc4cc(C(=O)O)ccc4c3)ccc21 | 224
COc1ccc(C2CCOCC2)c2sc(NC(=O)N(C)[C@H]3CC[C@H](O)CC3)nc12 | 160
CCOc1cc2c3cc(OCC)c(OCC)cc3c3c(OC)ccc(OC)c3c2cc1OCC | 157 to 158
